In brackets after ≈: the same amount, converted by molar mass.
Tests used:
Candida albicans [1] = test: Antifungal activity against FCZ-resistant Candida albicans 904 by CLSI based broth microdilution method; assay type: functional
Candida albicans [2] = test: Fungicidal activity against Candida albicans; assay type: functional
Candida albicans [3] = test: Fungicidal activity against FCZ-resistant Candida albicans 17#; assay type: functional
[4] = target: T1, Lanosterol 14-alpha demethylase (Candida albicans (strain SC5314 / ATCC MYA-2876) (Yeast), UniProt P10613); test: Inhibition of CYP51 of Candida albicans ATCC SC5314 assessed as decrease in ergosterol level by measuring residual activity at 2 ug/ml incubated for 16 hrs by GC-MS analysis (reference value: 98.3 %); conditions: at 2 µg/mL
[5] = target: T1, Lanosterol 14-alpha demethylase; test: Inhibition of CYP51 of Candida albicans ATCC SC5314 assessed as decrease in ergosterol level by measuring residual activity at 4 ug/ml incubated for 16 hrs by GC-MS analysis (reference value: 98.3 %); conditions: at 4 µg/mL
[6] = target: T1, Lanosterol 14-alpha demethylase; test: Inhibition of CYP51 of Candida albicans ATCC SC5314 assessed as decrease in ergosterol level by measuring residual activity at 8 ug/ml incubated for 16 hrs by GC-MS analysis (reference value: 98.3 %); conditions: at 8 µg/mL
[7] = target: T1, Lanosterol 14-alpha demethylase; test: Inhibition of CYP51 of Candida albicans ATCC SC5314 assessed as increase in obtusifoliol level at 8 ug/ml incubated for 16 hrs by GC-MS analysis (reference value: 0 %); set-up: scale not given: the % may be the effect or the level left; conditions: at 8 µg/mL
Candida albicans [8] = test: Antibiofilm activity against Candida albicans SC5314 assessed as sessile minimum inhibitory concentration measured after 1.5 hrs by XTT assay; assay type: functional
[9] = Cytotoxicity against human PC-3 cells by MTT assay; assay type: toxicity, cell-based
[10] = Acute toxicity in water diet-fed Kunming mouse administered intragastrically measured for 7 days; conditions: in vivo, po, route ig, time 7 day
[11] = Subacute toxicity in water diet-fed Kunming mouse assessed as adverse reactions at 100 to 200 mg/kg, IG measured for 48 hrs; assay type: organism-based; conditions: in vivo, po, dose 100-200 mg/kg
[12] = Subacute toxicity in water diet-fed Kunming mouse assessed as animal death at 100 to 200 mg/kg, IG measured after 7 to 14 days of continuous administration; assay type: organism-based; conditions: in vivo, po, dose lower 100 mg/kg, time lower 7 day, dose upper 200 mg/kg, time upper 14 day
[13] = Subacute toxicity in water diet-fed Kunming mouse assessed as liver edema at 100 to 200 mg/kg, IG measured after 7 to 14 days by microscopic analysis; assay type: organism-based; conditions: in vivo, po, dose lower 100 mg/kg, time lower 7 day, dose upper 200 mg/kg, time upper 14 day

T1 sequence (P10613 whole entry): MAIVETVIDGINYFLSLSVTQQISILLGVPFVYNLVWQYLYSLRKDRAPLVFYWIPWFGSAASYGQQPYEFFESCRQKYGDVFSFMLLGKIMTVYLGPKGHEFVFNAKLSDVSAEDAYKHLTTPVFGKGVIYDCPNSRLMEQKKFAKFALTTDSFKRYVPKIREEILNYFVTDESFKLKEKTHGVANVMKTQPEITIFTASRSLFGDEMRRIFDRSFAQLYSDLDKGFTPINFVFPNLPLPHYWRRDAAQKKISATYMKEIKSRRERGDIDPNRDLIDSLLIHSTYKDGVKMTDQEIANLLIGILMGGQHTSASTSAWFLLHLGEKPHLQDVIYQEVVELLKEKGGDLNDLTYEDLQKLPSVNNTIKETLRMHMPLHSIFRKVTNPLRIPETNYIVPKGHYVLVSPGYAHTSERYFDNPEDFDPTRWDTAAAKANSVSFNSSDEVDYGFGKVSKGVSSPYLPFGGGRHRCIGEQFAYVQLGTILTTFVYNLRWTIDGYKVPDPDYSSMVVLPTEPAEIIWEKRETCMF

Clc1ccc(C(Cn2ccnc2)[Se][Se]C(Cn2ccnc2)c2ccc(Cl)cc2Cl)c(Cl)c1 (centres undefined)
MIC (Candida albicans [1]): 4 µg/mL (≈ 6.27 µM) | MFC (Candida albicans [2]): 16 µg/mL (≈ 25.1 µM) | MFC (Candida albicans [3]): > 64 µg/mL | Activity [4]: 2.4% | Activity [5]: 2.7% | Activity [6]: 2.2% | Activity [7]: 19.8% | MIC50 (Candida albicans [8]): 0.5 µg/mL (≈ 0.784 µM) | MIC80 (Candida albicans [8]): 4 µg/mL (≈ 6.27 µM) | IC50 [9]: 1.43 µM | LD50 at 168 h [10]: ~2000 mg/kg | Activity [11]: Non-Toxic | Activity [12]: Non-Toxic | Activity [13]: Toxic
